# Source: patent US20120328696A1, “ANTI-PARKINSONIAN COMPOUND ACETYLSALICYLIC ACID MALTOL ESTER” (Hutecs Korea Pharmaceutical Co., Ltd., priority 2008, published 2012)
# Legend:
# Type in all cases: in vivo
# [1] = system: tumor necrosis factor (TNF)-α; assay: TNF-α expression after MA (western blot); settings: p.o.; AME 50, EBS 20, rottlerin 20 mg/kg; MA 8 mg/kg i.p. x4; GPx-1 (+/+) and (−/−) mice
# Description: (§1) The mice received four times of MA (8 mg/kg, ip) or saline as a 2 hr-time interval. Chemicals (AME, EBS, and PKC inhibitors) were administrated for 5 consecutive days (twice daily), and were given 2 times at 4 hr and 30 min before the first MA injection as shown in the experimental schedule. Animals were sacrificed at 4 hrs and 3 days after the final MA administration.
# (§2) The western blot assays was performed as described previously (Kim et al., 2003). Tissues were homogenized in lysis buffer, containing 200 mM Tris HCl (pH 6.8), 1% SDS, 5 mM EGTA (ethylene glycol tetraacetic acid), 5 mM EDTA (ethylenediaminetetraacetic acid), 10% glycerol, 1× phosphatase inhibitor cocktail I, 1× protease inhibitor cocktail. Lysate was centrifuged at 12,000×g for 30 min and supernatant fraction was used for Western blot analysis. Proteins (20-50 ug/lane) were separated by 6%, 8%, 10% or 15% sodium dodecyl sulfate-polyacrylamide gel electrophoresis and transferred onto the PVDF membranes. Following transfer, the membranes were preincubated with 5% non-fat milk and incubated overnight at 4° C. with primary antibody against β-actin (1:50000, Sigma, St. Louis, Mo., USA), TH (1:5000, Chemicon), TH phosphor-Ser 19 (1:1000, Chemicon,), TH phosphor-Ser 31 (1:500, Chemicon), TH phosphor-Ser 40 (1:500, Chemicon), F4/80 (1:500, Serotec), GPx1 (1:2500, AbFrontier), PKC (1:5000, Santa Cruz biotechnology, Santa Cruz, Calif., USA), p53 (1:5000, Cell signaling, Beverly, Mass., USA), MDM2 (1:1000, BD Pharmingen, San Jose, Calif., USA), MDM2 phospho-Ser 166 (1:1000, cell signaling), BDNF (1:500, Chemicon), GDNF (1:250, Santa Cruz), COX-2 (1:2000, Cayman, Ann Arbor, MC, USA), IL-6 (1:2000, Abcam, Cambridge, Mass., USA), TNF-a (1:1000, R&D Systems, Mckinley place NE, NM, USA), IFN-γ (1:500, Chemicon) or Iba-1 (1:500, Wako, Osaka, Japan). And then, membranes were incubated with HRP-conjugated secondary anti-rabbit IgG (1:1000, GE healthcare, Piscataway, N.J., USA), anti-mouse IgG (1:1000, Sigma) or anti-goat IgG (1:1000, Sigma) for 2 h. […]
# [2] = system: GPx-1 (+/+)- and GPx-1 (−/−)-mice; assay: MA-induced hyperthermia (rectal temperature); settings: MA 8 mg/kg i.p. x4
# Description: as §1
# Rectal temperature was measured in the MA- or saline-treated mice. Measurement was performed at constant daytime intervals starting at 9:00 A.M. to avoid the influence on circadian variations. Rectal temperature was measured by inserting a thermometer probe lubricated with oil at least 3 cm into the rectum of the mice. To prevent sudden movements occurring especially in MA-treated mice, animals were gently handled with a wool glove while their tail was moved to allow the probe insertion. This was done to prevent the effects of restrain stress on rectal temperature. When the attempt to insert probe was not successful (i.e., sudden movements of the animal or the need to restrain the mouse), the animal was excluded from the groups.
# cleaved PKCδ = assay: Striatal cleaved PKCδ expression after MA (western blot); settings: MA 8 mg/kg i.p. x4, GPx-1 (+/+) and (−/−) mice; for effect on MA-induced striatal cleaved PKCδ expression: p.o., AME 25 or 50, EBS 10 or 20, rottlerin 10 or 20 mg/kg
# Description: as §1
# Tissues were homogenized in lysis buffer, containing 200 mM Tris HCl (pH 6.8), 1% SDS, 5 mM EGTA (ethylene glycol tetraacetic acid), 5 mM EDTA (ethylenediaminetetraacetic acid), 10% glycerol, 1× phosphatase inhibitor cocktail I, 1× protease inhibitor cocktail. Lysate was centrifuged at 12,000×g for 30 min and supernatant fraction was used for Western blot analysis. […] And then, membranes were incubated with HRP-conjugated secondary anti-rabbit IgG (1:1000, GE healthcare, Piscataway, N.J., USA), anti-mouse IgG (1:1000, Sigma) or anti-goat IgG (1:1000, Sigma) for 2 h. Subsequent visualization was performed using enhanced chemiluminescence system (ECL Plus®, GE healthcare).
# GPx-1 = assay: Striatal glutathione peroxidase (GPx) activity after MA; settings: p.o.; AME 50, EBS 20, rottlerin 20 mg/kg; MA 8 mg/kg i.p. x4; GPx-1 (+/+) mice
# Description: as §1
# GPx were immediately measured from dissected striatal tissues. The tissues were sonicated in ice-cold 50 mM potassium phosphate buffer (pH 7.4, containing 2 mM EDTA), and were centrifuged at 11,000×g for 15 min at 4° C. The resulting supernatants were collected and the protein concentrations were quantified with the Quant-iT assays, using the Qubit™ fluorometer (Invitrogen, Carlsbad, Calif., USA). Cellular GPx activity was measured by the method of Paglia and Valentine (1967) with minor modification (Shin et al., 2008). The incubation mixture contained 1 mM glutathione, 0.2 mM NADPH, and 1.4 IU glutathione reductase in 0.05 M potassium phosphate buffer, pH 7.0. The reaction was initiated by the simultaneous addition of supernatant (0.3-0.8 mg protein) and 0.25 mM H2O2. The change in absorbance at 340 nm was followed by for 4.5 min and 1 UI of GPx activity was defined as the amount required to oxidize 1 μM NADPH/min, based on the molar absorptivity of […] for NADPH.
# [3] = system: glial cell line-derived neurotrophic factor (GDNF); assay: Striatal GDNF expression after MA (western blot); settings: p.o.; AME 50, EBS 20, rottlerin 20 mg/kg; MA 8 mg/kg i.p. x4; GPx-1 (+/+) and (−/−) mice
# Description: as §1, §2
# cyclooxygenase (COX)-2 = assay: COX-2 expression after MA (western blot); settings: p.o.; AME 50, EBS 20, rottlerin 20 mg/kg; MA 8 mg/kg i.p. x4; GPx-1 (+/+) and (−/−) mice
# Description: as §1, §2
# [4] = p.o., AME 25 or 50, EBS 10 or 20, rottlerin 10 or 20 mg/kg (p<0.01 at high dose), GPx-1 (+/+) and (−/−) mice
SMILES,effect on MA-induced increase in TNF-α expression [1],"effect on MA-induced hyperthermia [2, 4]",effect on MA-induced striatal cleaved PKCδ expression (cleaved PKCδ),effect on MA-induced decrease in striatal GPx-1 activity (GPx-1),effect on MA-induced reduction in GDNF expression [3],effect on MA-induced increase in COX-2 expression (cyclooxygenase (COX)-2),"effect on MA-induced hyperthermia ([2]; PKC inhibitors intra-striatal (doses of Table 1), GPx-1 (+/+) and GPx-1 (−/−) mice)",effect on MA-induced increase in striatal cleaved PKCδ expression (cleaved PKCδ; intra-striatal)
"CC(=O)Oc1ccccc1C(=O)Oc1c(C)occc1=O [AME, 3-(2-methyl-4-pyronyl)-2-acetyloxybenzoate]",significantly and consistently attenuating effects,attenuated hyperthermia induced by MA in a dose-related manner,significantly reduced MA-induced the PKCδ- and cleaved PKCδ-expressions in a dose-related manner,inhibited MA-induced decrease,significantly attenuated these reductions,significantly and consistently attenuating effects,–,–
"O=c1c2ccccc2[se]n1-c1ccccc1 [EBS, 2-phenyl-1,2-benzisoselenazol-3(2H)-one]",significantly and consistently attenuating effects,attenuated hyperthermia induced by MA in a dose-related manner,significantly reduced MA-induced the PKCδ- and cleaved PKCδ-expressions in a dose-related manner,inhibited MA-induced decrease,significantly attenuated these reductions,significantly and consistently attenuating effects,–,–
CC(=O)c1c(O)c(C)c(O)c(Cc2c(O)c3c(c(C(=O)/C=C/c4ccccc4)c2O)OC(C)(C)C=C3)c1O [rottlerin],significantly and consistently attenuating effects,attenuated hyperthermia induced by MA in a dose-related manner,significantly reduced MA-induced the PKCδ- and cleaved PKCδ-expressions in a dose-related manner,inhibited MA-induced decrease,significantly attenuated these reductions,significantly and consistently attenuating effects,significantly blocked MA-induced hyperthermia in a dose-dependent manner,attenuated the MA-induced increases in PKCδ expressions in a dose-dependent manner
